Reference: PubChem BioAssay AID2060501 (Molecular Pharmacology Branch, DTP, NCI, 2025)

System: 282377-053-R-J1-PDC complex spheroids, viability
Experiment: Anticancer human tumor 282377-053-R-J1-PDC patient-derived colon adenocarcinoma cell line growth inhibition [GQUAD]
Conditions: for IC50: curve of first compound; for viability, T/C: stronger effect = lower value
From the text: DNA G-quadruplex Stabilizer Agents in Combinations in Complex Spheroids
A high-throughput screen of multi-cell type tumor spheroids was designed to identify active combinations of DNA G-quadruplex stabilizer agents and targeted small molecules. Complex spheroids include a stromal component modeled by human endothelial cells (HUVEC) and fibroblasts modeled by human mesenchymal stem cells (MSCs). The concentration ranges selected for each drug and investigational agent were based upon clinically achievable concentrations if the clinical Cmax of the agent was known.
Compounds. The drugs and investigational agents: pidnarulex (CX-5461; NSC782164), APTO-253 (NSC789042), BRACO-19 (NSC847499), peposertib (NSC802822), ceralasertib (NSC780249), elimusertib (NSC800525), camonsertib (NSC841442), AZD-1390 (NSC803789), olaparib (NSC753686), talazoparib (NSC767125), ART-558 (NSC835418), sotorasib (NSC818433), MRTX-1133 (NSC836407), SN-38 (NSC673596), topotecan (NSC609699), etoposide (NSC141540), doxorubicin (NSC123127), gemcitabine (NSC613327), 5-fluorouracil (NSC19893), paclitaxel (NSC125973), vemurafenib (NSC761431), panobinostat (NSC761190), R-306465 (JNJ-16241199; NSC773264), adavosertib (NSC754352), TP-3654 (NSC805149), carboplatin (NSC241240), KSQ-4279 (NSC840948), and staurosporine (NSC755774) were obtained from the National Cancer Institute (NCI) Developmental Therapeutics Program Chemical Repository (34). The FDA-approved anticancer drug set is available from the NCI Developmental Therapeutics Program. […] The stock solutions were prepared in dimethyl sulfoxide (DMSO, Sigma-Aldrich, St. Louis, MO, cat. D2650) at 800-fold the tested concentration and stored at -70 degrees C prior to their use. All drugs and investigational agents were tested over a range starting from a high concentration at or near the clinical Cmax and decreasing in half-log increments. If the clinical Cmax for an agent had not been determined, the highest concentration tested was 10 microM.
2.3 Cell Culture. All cells were maintained in an incubator at 37 degrees C and 5% CO2 with 95% humidity. The PDC lines were cultured according to standard operating procedures established by the NCI PDMR. All PDCs were thawed and cultured in Matrigel-coated flasks prepared with a working solution of 1X Ham's F-12 nutrient mix, without supplementation (Invitrogen, cat. 11765054), 100 U/mL penicillin-streptomycin (Invitrogen, cat. 15140122), and 2.5% Matrigel (Corning Inc., cat. 354248) for the first three passages. The 857933-349-R-J2-PDC line was cultured in 6C/Colon 1B media, which includes advanced DMEM/F-12 (Thermo Fisher Scientific, cat. 12634028), 10 mM HEPES (Thermo Fisher Scientific, cat. 15630080), 1X GlutaMAX supplement (Thermo Fisher Scientific, cat. 35050061), 0.1 mg/mL primocin (InvivoGen, cat. ant-pm-2), 10% defined fetal bovine serum, heat inactivated (HyClone Laboratories Inc., cat. SH30070.03HI), 50% L-WRN conditioned media (ATCC, cat. CRL-3276), 1.25 mM N-Acetyl-L-cysteine (Sigma-Aldrich, cat. A9165), 10 mM nicotinamide (Sigma-Aldrich, cat. N0636), 1X B-27 supplement (Thermo Fisher Scientific, cat. 17504044), 1X N-2 supplement (Thermo Fisher Scientific, cat. 17502048), 10 microM Y-27632 dihydrochloride (Tocris Bioscience, cat. 1254), and 50 ng/mL human EGF recombinant protein (Thermo Fisher Scientific, cat. PHG0311). The 485176-168-R4-J1-PDC line was cultured in Panc media, which includes all 6C/Colon 1B media components plus 100 ng/mL human FGF-10 (Thermo Fisher Scientific, cat. 100-26), 500 nM SB-431542 (Selleckchem, cat. S1067), and gastrin (Tocris, cat. 3006).
[…]

[1] = second compound 0.0316 µM, first compound 0.0316 µM
[2] = second compound 0.0316 µM, first compound 0.1 µM
[3] = second compound 0.0316 µM, first compound 0.316 µM
[4] = second compound 0.0316 µM, first compound 1 µM
[5] = second compound 0.0316 µM, first compound 3.16 µM
[6] = second compound 0.0316 µM, first compound 10 µM
[7] = second compound 0.1 µM, first compound 0.0316 µM
[8] = second compound 0.1 µM, first compound 0.1 µM
[9] = second compound 0.1 µM, first compound 0.316 µM
[10] = second compound 0.1 µM, first compound 1 µM
[11] = second compound 0.1 µM, first compound 3.16 µM
[12] = second compound 0.1 µM, first compound 10 µM
[13] = second compound 0.316 µM, first compound 0.0316 µM
[14] = second compound 0.316 µM, first compound 0.1 µM
[15] = second compound 0.316 µM, first compound 0.316 µM
[16] = second compound 0.316 µM, first compound 1 µM
[17] = second compound 0.316 µM, first compound 3.16 µM
[18] = second compound 0.316 µM, first compound 10 µM
[19] = second compound 1 µM, first compound 0.0316 µM
[20] = second compound 1 µM, first compound 0.1 µM
[21] = second compound 1 µM, first compound 0.316 µM
[22] = second compound 1 µM, first compound 1 µM
[23] = second compound 1 µM, first compound 3.16 µM
[24] = second compound 1 µM, first compound 10 µM
[25] = second compound 3.16 µM, first compound 0.0316 µM
[26] = second compound 3.16 µM, first compound 0.1 µM
[27] = second compound 3.16 µM, first compound 0.316 µM
[28] = second compound 3.16 µM, first compound 1 µM
[29] = second compound 3.16 µM, first compound 3.16 µM
[30] = second compound 3.16 µM, first compound 10 µM
[31] = second compound 10 µM, first compound 0.0316 µM
[32] = second compound 10 µM, first compound 0.1 µM
[33] = second compound 10 µM, first compound 0.316 µM
[34] = second compound 10 µM, first compound 1 µM
[35] = second compound 10 µM, first compound 3.16 µM
[36] = second compound 10 µM, first compound 10 µM
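Note: spheroids exposed to compounds for 7 days before readout.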
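Throughout, for viability, T/C: percent of vehicle DMSO control viability with 100% = untreated-like growth.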

SMILES: O=C(c1cc(Cc2n[nH]c(=O)c3ccccc23)ccc1F)N1CCN(C(=O)C2CC2)CC1 + CN(C)c1ccc(Nc2c3ccc(NC(=O)CCN4CCCC4)cc3nc3cc(NC(=O)CCN4CCCC4)ccc23)cc1
- IC50 (second compound 0.0316 µM): > 10 µM
- IC50 (second compound 0.1 µM): > 10 µM
- IC50 (second compound 0.316 µM): > 10 µM
- IC50 (second compound 1 µM): > 10 µM
- IC50 (second compound 3.16 µM): > 10 µM
- IC50 (second compound 10 µM): > 10 µM
- viability, T/C [1]: 102%
- viability, T/C [2]: 91.5%
- viability, T/C [3]: 94.2%
- viability, T/C [4]: 97.4%
- viability, T/C [5]: 105%
- viability, T/C [6]: 96.8%
- viability, T/C [7]: 128%
- viability, T/C [8]: 107%
- viability, T/C [9]: 96.9%
- viability, T/C [10]: 100%
- viability, T/C [11]: 89.7%
- viability, T/C [12]: 90.7%
- viability, T/C [13]: 102%
- viability, T/C [14]: 92.6%
- viability, T/C [15]: 83.4%
- viability, T/C [16]: 81.5%
- viability, T/C [17]: 91.2%
- viability, T/C [18]: 109%
- viability, T/C [19]: 108%
- viability, T/C [20]: 88%
- viability, T/C [21]: 88.1%
- viability, T/C [22]: 74.9%
- viability, T/C [23]: 74.7%
- viability, T/C [24]: 92.4%
- viability, T/C [25]: 91.6%
- viability, T/C [26]: 83.5%
- viability, T/C [27]: 99.3%
- viability, T/C [28]: 101%
- viability, T/C [29]: 86.5%
- viability, T/C [30]: 89.5%
- viability, T/C [31]: 99%
- viability, T/C [32]: 88.4%
- viability, T/C [33]: 105%
- viability, T/C [34]: 75.9%
- viability, T/C [35]: 108%
- viability, T/C [36]: 119%

SMILES: COc1ccc([C@@H](O)c2cc(-c3ncnc4cc(N5CCOCC5)ccc34)c(F)cc2Cl)nn1 + Cc1[nH]c2ccc(F)cc2c1-c1nc2c3cccnc3c3ncccc3c2[nH]1
- IC50 (second compound 0.0316 µM): > 10 µM
- IC50 (second compound 0.1 µM): > 10 µM
- IC50 (second compound 0.316 µM): > 10 µM
- IC50 (second compound 1 µM): > 10 µM
- IC50 (second compound 3.16 µM): 0.432 µM
- IC50 (second compound 10 µM): < 0.0316 µM
- viability, T/C [1]: 101%
- viability, T/C [2]: 91.3%
- viability, T/C [3]: 102%
- viability, T/C [4]: 73.9%
- viability, T/C [5]: 76.3%
- viability, T/C [6]: 63.8%
- viability, T/C [7]: 107%
- viability, T/C [8]: 101%
- viability, T/C [9]: 97.9%
- viability, T/C [10]: 84.9%
- viability, T/C [11]: 72%
- viability, T/C [12]: 61.1%
- viability, T/C [13]: 87.8%
- viability, T/C [14]: 93%
- viability, T/C [15]: 73.8%
- viability, T/C [16]: 93.7%
- viability, T/C [17]: 75.3%
- viability, T/C [18]: 60.6%
- viability, T/C [19]: 86.5%
- viability, T/C [20]: 88.5%
- viability, T/C [21]: 94.7%
- viability, T/C [22]: 97.1%
- viability, T/C [23]: 88.2%
- viability, T/C [24]: 57.4%
- viability, T/C [25]: 75.7%
- viability, T/C [26]: 68.6%
- viability, T/C [27]: 47.2%
- viability, T/C [28]: 42.8%
- viability, T/C [29]: 33.2%
- viability, T/C [30]: 15.9%
- viability, T/C [31]: 44.8%
- viability, T/C [32]: 47.4%
- viability, T/C [33]: 33.6%
- viability, T/C [34]: 26.3%
- viability, T/C [35]: 19.6%
- viability, T/C [36]: 21.1%
